The target of data set [1] is T1, pMHC complex (neoepitope/HLA-A0201) on T2 cells (Homo sapiens, UniProt P04439, D140Y/D185E/D98H/E176V/E277Q/G131W/G231S/I119V/I121R/I166T/I218V/L300P/L318F/N151K/N90K/P208A/P217A/Q86G/Q94H/R138H/R169H/T345S).
T1 construct: endogenous in cells; host or cells: T2 cells
As to the kind of experiment: T2 stability assay of pMHC complex. It counts as binding. As to conditions: for DC50 (time required for 50% dissociation of the pMHC complex stabilized at t = 0 h): T2 cells, 50 µg epitope + 3 µg β2M 18 h, 5 µg/mL brefeldin A 1 h, then 0, 6, 12, 18, 24 h at 37 °C, PE-HLA-A2 flow cytometry; for Stability of pMHC complexes (dissociation rate over 0-24 h, Figure 2B): in words, mean ± SD of 3 independent experiments. The procedure:
T2 cells were cultured with 50 µg of each epitope peptide and 3 µg β2M for 18 h in 1 mL FBS-free RPMI1640 medium at 37 °C in a 24-well plate using 1 × 10^6 cells/well. T2 cells were then incubated with 5 µg/mL brefeldin A (Abcam, Cambridge, UK) at 37 °C for another 1 h after washing twice with PBS. […] The MFI of the HLA-A0201 molecules in T2 cells was detected by flow cytometry. The results are expressed as DC50, which is the time required for 50% dissociation of the pMHC complex stabilized at t = 0 h.
In general terms: In flow cytometry, cells or beads pass a laser one at a time.

The test system of another data set is naïve CD8+ T cells. As to the kind of experiment: CFSE proliferation of CD8+ T cells stimulated by neoepitope-loaded DCs. It counts as cell-based, human. The conditions noted are these: DCs loaded with 10 µg/mL neoepitope, T cells:DCs 10:1, two rounds of 7 days, flow cytometry, mean ± SD. On the procedure:
(§1) To elicit neoepitope-specific CD8^+ T cell responses, peripheral blood mononuclear cells (PBMCs) were isolated from healthy HLA-A0201 volunteer donors using lymphocyte separation medium (MP Biomedicals, Burlingame, CA, USA). This protocol was approved by the Ethics Committee of Fujian Cancer Hospital (Approval No. SQ2017-032-01). PBMCs were seeded into a 6-well plate and incubated for 2 h. Adherent cells were then induced to differentiate into dendritic cells (DCs) with 581 medium (Corning, NY, USA) in the presence of 100 ng/mL recombinant human GM-CSF (Mitenyi Biotec, Bergisch Gladbach, Germany) and 50 ng/mL recombinant human IL-4 (Mitenyi Biotec). DCs were sensitized with 10 µg/mL neoepitope, with a preparation without peptide serving as the control. After 24 h, 10 ng/mL IL-6 (Miltenyi Biotec), 10 ng/mL IL-1β (Miltenyi Biotec), 1 µg/mL CD40L (Miltenyi Biotec), and 10 ng/mL TNF-α (Mitenyi Biotec) were added for DC maturation. Next, naïve T cells were co-cultured for 7 days with DCs at a responder: stimulator ratio of 10:1. Medium was then replaced by half-fresh medium containing IL-2 (200 IU/mL, Jiangsu Kingsley Pharmaceutical, Nanjing, China) every 3 days. After another stimulation with neoepitope-loaded DCs for 7 days, CD8 MicroBeads (Mitenyi Biotec) were used to isolate positive CD8^+ T cells for subsequent experiments.
The naïve CD8^+ T cells were adjusted to 1 × 10^7 cells/mL and subjected to carboxyfluorescein succinimidyl ester (CFSE; Invitrogen) staining. The CFSE concentration was 1 µg/mL. Naïve CD8^+ T cells were incubated at 37 °C in the dark for 5 min. CFSE-labeled naïve CD8^+ T cells were incubated in 5 times the volume of 581 medium containing 5% FBS (PAN-Seratech, Aidenbach, Germany) in the dark for 2.5 min, centrifuged at 1,500 rpm for 5 min, and resuspended in 581 medium. The naïve CD8^+ T cells were co-cultured with DCs with different neoepitopes at a ratio of 10:1 (naive CD8^+ T cells: 1 × 10^6 cells: DCs: 1 × 10^5 cells). After co-culturing with DCs with different neoepitopes for 2 consecutive times, 7 days for each time, T cells were stained with 20 µL PerCP-CD3 fluorescent antibody (BD Biosciences) and 5 µL APC-CD8 fluorescent antibody (BD Biosciences) in the dark for 30 min. The CFSE abundance on the surface of T cells was detected by flow cytometry to determine the proliferation of T cells.

Data set [2] addresses T2, HLA-A0201 molecules on the T2 cell surface (Homo sapiens, UniProt P04439, D140Y/D185E/D98H/E176V/E277Q/G131W/G231S/I119V/I121R/I166T/I218V/L300P/L318F/N151K/N90K/P208A/P217A/Q86G/Q94H/R138H/R169H/T345S).
T2 construct: The MFI (mean fluorescence intensity) of HLA-A0201 molecules on the T2 cell surface was detected by flow cytometry; endogenous in cells; host or cells: T2 cells
As to the kind of experiment: T2 binding (affinity) assay. As to conditions: T2 cells 1 × 10^6 cells/well, 50 µg epitope + 3 µg β2M in 1 mL FBS-free RPMI1640, 37 °C, 18 h, PE-HLA-A2 antibody, flow cytometry, FI = (MFI epitope – MFI control)/MFI control, mean ± SD. The procedure: The T2 cells were placed in a 24-well plate at a density of 1 × 10^6 cells/well; 50 µg epitope and 3 µg β2M (Merck, Kenilworth, NJ, USA) were then added and incubated in 1 mL fetal bovine free (FBS)-free RPMI1640 medium (Invitrogen, Carlsbad, CA, USA) at 37 °C for 18 h. T2 cells were washed twice with phosphate-buffered saline (PBS), treated with 20 µL PE-HLA-A2 fluorescent antibody (BD Biosciences, San Jose, CA, USA), incubated in the dark for 30 min, and then washed with PBS once. The MFI (mean fluorescence intensity) of HLA-A0201 molecules on the T2 cell surface was detected by flow cytometry (BD Biosciences). The formula used for calculating the fluorescence index was as follows: FI = (MFI of the epitope group – MFI of the control group)/MFI of the control group.

In data set [3] the test system is neoepitope-specific CTLs. As to the kind of experiment: Intracellular perforin staining of CTLs. It counts as cell-based, human. As to conditions: T cells:T2 cells loaded with wild-type neoepitopes 10:1, 24 h, brefeldin A 1 h, CD8+ gate, flow cytometry, mean ± SD of 3 independent experiments. The procedure:
as §1
T cells and T2 cells loaded with wild-type neoepitopes were co-cultured at a ratio of 10:1 for 24 h, incubated in the presence of 5 µg/mL brefeldin A for 1 h, and washed with PBS once. The cells were stained with 20 µL PerCP-CD3 fluorescent antibody and 5 µL APC-CD8 fluorescent antibody in the dark for 30 min, followed by fixation with 100 µL Reagent A from a Intrasure Kit (BD Biosciences) in the dark for 5 min. Subsequently, the cells were permeabilized and stained with 50 µL Reagent B from the Intrasure Kit and 20 µL FITC-perforin fluorescent antibody (BD Biosciences) in the dark for 30 min. After washing with PBS once, the expression of perforin in T cells was detected by flow cytometry.

A further data set has as its system T cells. As to the kind of experiment: IFN-γ ELISA, T cells co-cultured with neoepitope-loaded DCs. It counts as cell-based, human. The conditions noted are these: ELISA of co-culture supernatant; compared with wild-type neoepitope, P < 0.05. The procedure: as §1
(§2) The level of IFN-γ or TNF-α in the culture supernatants was detected using commercially available ELISA kits (Thermo Fisher Scientific, Waltham, MA, USA). Briefly, 96-well plates were coated with 100 µL/well capture antibody in coating buffer overnight. Plates were washed with wash buffer 3 times, 200 µL/well ELISA Diluent (1×) was added, and plates were incubated for 1 h. After washing with wash buffer twice, 100 µL/well of supernatants were added, incubated for 2 h, and washed with wash buffer 3 times, followed by addition of 100 µL/well antibodies against human IFN-γ/TNF-α. […] After incubation for 15 min, 100 µL/well stop solution was added to each well, and the optical density was measured using a microplate reader at 450 nm.
Background: ELISA stands for enzyme-linked immunosorbent assay.

Data set [4] has as its system T2 cells loaded with wild-type neoepitopes. As to the kind of experiment: LDH release cytotoxicity assay of neoepitope-specific CTLs. The class given is cell-based, human. The conditions noted are these: effector/target 20:1, 10:1, 5:1, 4 h, 37 °C, compared with wild-type neoepitope-specific CTLs. On the procedure:
as §1
The amount of lactate dehydrogenase (LDH) released from target cells incubated with neoepitope-specific T cells was measured using the CytoTox 96® Non-Radioactive Cytotoxicity Assay Kit (Promega, Madison, WI, USA). T2 cells loaded with neoepitopes were used as target cells at 1 × 10^4 cells/well in 96-well plates. […] After adding stop solution at 50 µL/well, the plates were analyzed using a microplate reader at a wavelength of 490 nm. The killing percentage of antigen-specific T cells to T2 cells loaded with neoepitopes was calculated according to the following formula: killing percentage = (experimental release – target spontaneous release – effector spontaneous release)/(target maximum release – target spontaneous release) × 100%.
On the technique in general: LDH leaks from cells whose membrane has failed.

Data set [5] has as its system neoepitope-specific CTLs. As to the kind of experiment: IFN-γ ELISA, CTLs co-cultured with target cells. It counts as cell-based, human. The conditions noted are these: ELISA of supernatant; compared with CTLs stimulated by wild-type neoepitopes, P < 0.05. On the procedure:
as §1, §2

Data set [6] deals with neoepitope-specific CTLs. As to the kind of experiment: TNF-α ELISA, CTLs co-cultured with target cells. The class given is cell-based, human. The conditions noted are these: ELISA of supernatant; compared with CTLs stimulated by wild-type neoepitopes, P < 0.05. On the procedure: as §1, §2

“Also recorded” adds a separate entry of the source.

The source of these data is PMC8610152, “Residue substitution enhances the immunogenicity of neoepitopes from gastric cancers” (Cancer Biology & Medicine, 2021).

For the sequence FIGITATVV [mutABCA2], the “DC50 (time required for 50% dissociation of the pMHC complex stabilized at t = 0 h)” value in data set [1] was less than 18 h. Further, in the data set with naïve CD8+ T cells, the “Proliferation of specific CD8+ T cells” value is 12.53% ± 1.79%. Also, the “FI (fluorescence index)” value in data set [2] was found to be 3.32 ± 0.36. Moreover, the “Perforin expression in CTLs” value in the data set on neoepitope-specific CTLs [3] is given as 29.87% ± 2.12%.

In the case of FLGITATVV [mutABCA2L2], in data set [1], the “DC50 (time required for 50% dissociation of the pMHC complex stabilized at t = 0 h)” value is listed as more than 18 h and the “Stability of pMHC complexes (dissociation rate over 0-24 h, Figure 2B)” value is on record as “higher than those of wild-type neoepitopes”. Further, the “IFN-γ secretion in T cells stimulated by DCs with neoepitopes” value (shortened to “IFN-γ secretion in T cells stimulated”) in the data set on T cells is “more IFN-γ than the wild-type neoepitopes”. Also, the “Cytotoxicity of neoepitope-specific CTLs on T2 cells loaded with wild-type neoepitopes” value (shortened to “Cytotoxicity of neoepitope-specific CTLs”) in data set [4] was “killed a greater number of T2 cells loaded with wild-type neoepitopes”. Moreover, the “IFN-γ released by CTLs co-cultured with target cells” value (from here on “IFN-γ released by CTLs co-cultured”) with neoepitope-specific CTLs [5] was “released more IFN-γ and TNF-α”. For the same sequence, the “Proliferation of specific CD8+ T cells” value in the data set with naïve CD8+ T cells is on record as 16.47% ± 1.59%. The “FI (fluorescence index)” value in data set [2] was found to be 4.49 ± 0.42. Also, the “Perforin expression in CTLs” value with neoepitope-specific CTLs [3] is listed as 36.57% ± 2.01%. For the same sequence, the “TNF-α released by CTLs co-cultured with target cells” value (shortened to “TNF-α released by CTLs co-cultured”) in the data set on neoepitope-specific CTLs [6] was “released more IFN-γ and TNF-α”.

Turning to PLLPVTCGV [mutSP140], the “DC50 (time required for 50% dissociation of the pMHC complex stabilized at t = 0 h)” value in data set [1] was more than 24 h. Also, the “Proliferation of specific CD8+ T cells” value in the data set with naïve CD8+ T cells is listed as 18.87% ± 0.81%. The “FI (fluorescence index)” value in data set [2] is 3.79 ± 0.50. In the data set with neoepitope-specific CTLs [3], the “Perforin expression in CTLs” value is on record as 44.70% ± 1.68%.

For the sequence SLIISVDGV [mutSTOML2], in data set [1], the “DC50 (time required for 50% dissociation of the pMHC complex stabilized at t = 0 h)” value was more than 18 h and the “Stability of pMHC complexes (dissociation rate over 0-24 h, Figure 2B)” value was “higher than those of wild-type neoepitopes”. Further, in the data set with T cells, the “IFN-γ secretion in T cells stimulated” value is given as “more IFN-γ than the wild-type neoepitopes”. Further, the “Cytotoxicity of neoepitope-specific CTLs” value in data set [4] is “killed a greater number of T2 cells loaded with wild-type neoepitopes”. Also, the “IFN-γ released by CTLs co-cultured” value with neoepitope-specific CTLs [5] is “released more IFN-γ and TNF-α”. Further, in the data set with naïve CD8+ T cells, the “Proliferation of specific CD8+ T cells” value is 17.70% ± 1.14%. For the same sequence, the “FI (fluorescence index)” value in data set [2] was 4.71 ± 0.41. Moreover, the “Perforin expression in CTLs” value with neoepitope-specific CTLs [3] is 41.30% ± 1.76%. The “TNF-α released by CTLs co-cultured” value in the data set with neoepitope-specific CTLs [6] was “released more IFN-γ and TNF-α”.

Take SVIISVDGV [mutSTOM]: the “DC50 (time required for 50% dissociation of the pMHC complex stabilized at t = 0 h)” value in data set [1] is listed as less than 18 h. Also, the “Proliferation of specific CD8+ T cells” value in the data set on naïve CD8+ T cells is 14.03% ± 0.76%. For the same sequence, the “FI (fluorescence index)” value in data set [2] was 4.27 ± 0.52. The “Perforin expression in CTLs” value in the data set on neoepitope-specific CTLs [3] was 35.53% ± 1.02%.

With YLLPVTCGV [mutSP140Y1], the “Stability of pMHC complexes (dissociation rate over 0-24 h, Figure 2B)” value in data set [1] is “higher than those of wild-type neoepitopes; also recorded: more stable than mutSP140”. Also, in the data set with T cells, the “IFN-γ secretion in T cells stimulated” value was “more IFN-γ than the wild-type neoepitopes”. Moreover, the “Cytotoxicity of neoepitope-specific CTLs” value in data set [4] is on record as “killed a greater number of T2 cells loaded with wild-type neoepitopes”. The “IFN-γ released by CTLs co-cultured” value in the data set with neoepitope-specific CTLs [5] was “released more IFN-γ and TNF-α”. Also, the “Proliferation of specific CD8+ T cells” value with naïve CD8+ T cells is 23.43% ± 1.17%. In the data set with neoepitope-specific CTLs [3], the “Perforin expression in CTLs” value is given as 56.20% ± 1.28%. Besides, the “TNF-α released by CTLs co-cultured” value with neoepitope-specific CTLs [6] was “released more IFN-γ and TNF-α”.
